# From ChEMBL document CHEMBL1201862, “PubChem BioAssay data set” (2004)
# Calls of active or inactive are those of the source. For most assays here, no stated cut-off is given here; in the data, actives have a measured IC50 and inactives only a lower limit.
# Key:
# HEK293 [1] = assay: membrane integrity loss in HEK cells – cell-based, fluorescence, cytotoxicity control for IDE activator project, dose response (AID 588440); format: functional; conditions: Homo sapiens;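 further: cytotoxicity by LDH release measuring loss of membrane integrity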
# Insulin-degrading enzyme [2] = biological target: T1, Insulin-degrading enzyme (Homo sapiens, UniProt P14735); assay: recombinant IDE activation, cell-free – biochemical, fluorescence polarization, counter-screen for IDE activator project, dose response (AID 588681)
# T1 sequence (P14735 whole entry): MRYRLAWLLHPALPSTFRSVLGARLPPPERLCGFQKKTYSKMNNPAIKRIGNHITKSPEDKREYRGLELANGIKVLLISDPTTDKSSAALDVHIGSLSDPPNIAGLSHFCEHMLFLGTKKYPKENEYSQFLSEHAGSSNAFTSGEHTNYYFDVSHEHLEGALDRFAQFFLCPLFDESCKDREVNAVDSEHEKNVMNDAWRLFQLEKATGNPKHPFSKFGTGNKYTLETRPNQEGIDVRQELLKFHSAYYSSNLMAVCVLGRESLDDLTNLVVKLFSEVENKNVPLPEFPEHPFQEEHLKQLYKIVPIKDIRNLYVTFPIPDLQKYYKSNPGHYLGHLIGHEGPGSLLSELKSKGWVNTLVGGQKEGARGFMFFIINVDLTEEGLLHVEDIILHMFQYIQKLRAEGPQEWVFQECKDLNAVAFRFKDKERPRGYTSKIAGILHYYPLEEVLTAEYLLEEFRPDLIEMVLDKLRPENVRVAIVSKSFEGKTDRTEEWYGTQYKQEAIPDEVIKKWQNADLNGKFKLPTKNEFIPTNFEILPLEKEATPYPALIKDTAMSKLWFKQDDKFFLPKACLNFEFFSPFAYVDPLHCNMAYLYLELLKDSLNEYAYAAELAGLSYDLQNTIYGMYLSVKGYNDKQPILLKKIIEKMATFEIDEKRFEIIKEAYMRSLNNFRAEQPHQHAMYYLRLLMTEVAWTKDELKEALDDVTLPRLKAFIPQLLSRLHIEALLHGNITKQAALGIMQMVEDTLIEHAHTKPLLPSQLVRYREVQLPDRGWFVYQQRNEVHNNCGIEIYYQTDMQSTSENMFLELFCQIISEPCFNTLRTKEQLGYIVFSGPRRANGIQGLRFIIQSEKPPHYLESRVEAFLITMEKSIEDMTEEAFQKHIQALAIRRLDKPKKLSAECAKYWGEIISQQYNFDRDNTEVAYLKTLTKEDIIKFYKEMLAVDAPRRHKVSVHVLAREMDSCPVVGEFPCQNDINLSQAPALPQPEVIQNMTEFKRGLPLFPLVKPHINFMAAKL
# Insulin-degrading enzyme [3] = biological target: T1, Insulin-degrading enzyme; assay: cellular IDE activation of Abeta substrate cleavage – fluorescence polarization, HEK cells, dose response (AID 588439); format: functional, cell-based
# HEK293 [4] = assay: optical interference in Abeta FP readout, dose response, artefact control for IDE activator project, biochemical, fluorescence polarization (AID 588442); format: functional, cell-based; conditions: Homo sapiens
# [5] = biological target: T2, Sentrin-specific protease 7 (Homo sapiens, UniProt Q9BQF6); assay: inhibition of human SENP7 cleavage activity – biochemical, luminescence, set 2, SAR follow-up (AID 588600); format: functional
# T2 sequence (Q9BQF6 whole entry): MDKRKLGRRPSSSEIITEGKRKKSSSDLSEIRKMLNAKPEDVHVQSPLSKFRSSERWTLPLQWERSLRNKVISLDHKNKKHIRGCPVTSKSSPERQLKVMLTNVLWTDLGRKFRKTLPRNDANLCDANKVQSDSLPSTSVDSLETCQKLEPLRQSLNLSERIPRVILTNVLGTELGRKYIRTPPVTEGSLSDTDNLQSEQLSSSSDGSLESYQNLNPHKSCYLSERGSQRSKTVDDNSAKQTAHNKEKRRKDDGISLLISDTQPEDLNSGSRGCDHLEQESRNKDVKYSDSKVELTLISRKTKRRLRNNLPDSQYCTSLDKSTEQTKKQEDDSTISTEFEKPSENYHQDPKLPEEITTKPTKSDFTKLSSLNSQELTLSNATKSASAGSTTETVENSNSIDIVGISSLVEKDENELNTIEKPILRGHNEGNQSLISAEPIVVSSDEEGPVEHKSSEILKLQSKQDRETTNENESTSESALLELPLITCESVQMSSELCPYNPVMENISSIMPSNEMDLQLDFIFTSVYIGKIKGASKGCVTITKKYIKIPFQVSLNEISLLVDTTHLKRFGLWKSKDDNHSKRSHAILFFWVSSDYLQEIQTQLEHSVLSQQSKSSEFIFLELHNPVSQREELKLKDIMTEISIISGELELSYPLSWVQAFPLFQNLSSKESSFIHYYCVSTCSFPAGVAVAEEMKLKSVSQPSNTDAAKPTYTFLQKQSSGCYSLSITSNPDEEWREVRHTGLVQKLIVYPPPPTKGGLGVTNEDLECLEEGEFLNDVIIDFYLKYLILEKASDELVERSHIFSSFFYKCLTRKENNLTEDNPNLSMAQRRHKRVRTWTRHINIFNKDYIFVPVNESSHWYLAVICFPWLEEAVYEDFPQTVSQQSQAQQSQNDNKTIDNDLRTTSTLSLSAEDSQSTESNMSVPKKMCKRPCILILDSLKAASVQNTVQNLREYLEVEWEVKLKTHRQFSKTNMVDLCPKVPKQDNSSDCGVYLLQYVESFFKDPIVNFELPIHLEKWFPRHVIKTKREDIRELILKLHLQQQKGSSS
# [6] = biological target: T3, Sentrin-specific protease 8 (Homo sapiens, UniProt Q96LD8); assay: inhibition of sentrin protease 8 – biochemical, luminescence, set 2, SAR follow-up (AID 588601); format: functional
# T3 sequence (Q96LD8 whole entry): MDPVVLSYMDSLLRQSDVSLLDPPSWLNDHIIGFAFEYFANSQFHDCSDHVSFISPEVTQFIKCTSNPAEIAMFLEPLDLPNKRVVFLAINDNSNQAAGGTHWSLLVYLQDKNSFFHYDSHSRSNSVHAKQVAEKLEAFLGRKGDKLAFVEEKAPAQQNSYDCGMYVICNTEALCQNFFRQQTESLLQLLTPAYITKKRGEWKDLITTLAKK
# [7] = biological target: T3, Sentrin-specific protease 8; assay: inhibition of human SENP8 cleavage activity – biochemical, luminescence, SAR follow-up (AID 504501); format: functional
# Caspase-3 [8] = biological target: T4, Caspase-3 (Homo sapiens, UniProt P42574); assay: inhibition of recombinant caspase-3 activity – biochemical, luminescence, set 2, selectivity assay for SENP protease inhibitor project, SAR follow-up (AID 588599); format: functional
# T4 sequence (P42574 whole entry): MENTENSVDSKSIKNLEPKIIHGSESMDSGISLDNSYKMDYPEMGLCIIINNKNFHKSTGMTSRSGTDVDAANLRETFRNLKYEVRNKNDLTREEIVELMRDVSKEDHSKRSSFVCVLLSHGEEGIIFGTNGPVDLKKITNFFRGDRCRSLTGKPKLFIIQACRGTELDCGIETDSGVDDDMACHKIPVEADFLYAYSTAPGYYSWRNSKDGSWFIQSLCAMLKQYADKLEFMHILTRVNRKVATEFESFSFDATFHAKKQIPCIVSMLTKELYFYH
# Caspase-3 [9] = biological target: T4, Caspase-3; assay: SAR Analysis of small molecule inhibitors of Sentrin-specific proteases (SENPs) using a Caspase-3 Selectivity assay. [Related pubchem assays (depositor defined):AID2540, AID2599, AID434973, AID489001]; format: functional
# [10] = biological target: T5, Sentrin-specific protease 6 (Homo sapiens, UniProt Q9GZR1); assay: SAR Analysis of small molecule inhibitors of Sentrin-specific protease 6 (SENP6) using a Luminescent assay. [Related pubchem assays (depositor defined):AID2582, AID2599]; format: functional
# T5 sequence (Q9GZR1 whole entry): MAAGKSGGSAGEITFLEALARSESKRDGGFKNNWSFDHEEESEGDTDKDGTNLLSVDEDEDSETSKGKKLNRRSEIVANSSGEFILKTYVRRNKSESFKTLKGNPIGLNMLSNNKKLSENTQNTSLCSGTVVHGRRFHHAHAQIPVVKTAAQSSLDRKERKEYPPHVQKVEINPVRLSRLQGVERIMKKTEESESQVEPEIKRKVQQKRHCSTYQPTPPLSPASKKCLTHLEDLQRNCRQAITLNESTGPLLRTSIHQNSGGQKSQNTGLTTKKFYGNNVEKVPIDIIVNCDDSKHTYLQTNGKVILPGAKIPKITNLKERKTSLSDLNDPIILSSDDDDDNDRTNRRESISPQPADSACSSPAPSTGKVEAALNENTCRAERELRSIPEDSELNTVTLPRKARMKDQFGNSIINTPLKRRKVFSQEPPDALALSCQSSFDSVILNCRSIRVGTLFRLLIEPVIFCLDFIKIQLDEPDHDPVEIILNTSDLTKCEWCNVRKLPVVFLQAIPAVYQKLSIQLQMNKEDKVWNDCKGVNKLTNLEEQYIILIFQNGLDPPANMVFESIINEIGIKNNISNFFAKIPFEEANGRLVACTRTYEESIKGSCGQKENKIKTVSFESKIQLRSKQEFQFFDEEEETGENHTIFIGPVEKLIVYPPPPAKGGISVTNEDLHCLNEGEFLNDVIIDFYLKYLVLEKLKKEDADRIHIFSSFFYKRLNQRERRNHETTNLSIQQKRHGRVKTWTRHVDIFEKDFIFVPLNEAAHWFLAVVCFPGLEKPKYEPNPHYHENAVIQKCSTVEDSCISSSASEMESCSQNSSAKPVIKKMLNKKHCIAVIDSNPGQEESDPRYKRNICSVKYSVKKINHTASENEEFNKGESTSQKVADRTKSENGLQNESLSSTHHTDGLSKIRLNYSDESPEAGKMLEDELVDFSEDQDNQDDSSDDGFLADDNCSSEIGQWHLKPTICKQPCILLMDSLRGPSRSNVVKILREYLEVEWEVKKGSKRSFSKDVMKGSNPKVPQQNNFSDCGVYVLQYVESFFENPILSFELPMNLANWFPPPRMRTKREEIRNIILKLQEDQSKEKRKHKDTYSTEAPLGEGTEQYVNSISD
# [11] = biological target: T5, Sentrin-specific protease 6; assay: inhibition of human SENP6 catalytic domain – biochemical, luminescence, set 2, SAR follow-up (AID 588598); format: functional
# [12] = biological target: T2, Sentrin-specific protease 7; assay: inhibition of human SENP7 cleavage activity – biochemical, luminescence, SAR follow-up (AID 504497); format: functional
SMILES,IC50 (HEK293 [1]),EC50 (Insulin-degrading enzyme [2]),EC50 (Insulin-degrading enzyme [3]),EC50 (HEK293 [4]),IC50 [5],IC50 [6],IC50 [7],IC50 (Caspase-3 [8]),IC50 (Caspase-3 [9]),IC50 [10],IC50 [11],IC50 [12]
CC(C)CN1CCC(=O)N([C@H](CO)c2ccccc2)CC1,> 89.3 µM (inactive),> 54.7 µM (inactive),> 54.7 µM (inactive),> 54.7 µM (inactive),–,–,–,–,–,–,–,–
Oc1ccccc1-c1nc(/C=C/c2ccccc2Cl)no1,–,–,–,–,1.36 µM (active),1.29 µM (active),1.2 µM (active),1.44 µM (active),1.2 µM (active),1.2 µM (active),1.35 µM (active),1 µM (active)
